Results on 7 compounds are retold here after ChEMBL document CHEMBL4818987, “Recent advances of podophyllotoxin/epipodophyllotoxin hybrids in anticancer activity, mode of action, and structure-activity relationship: An update (2010-2020)” (Eur J Med Chem, 2020).

Some results are limits rather than exact numbers.

Series [1] deals with BGC-823. Kind of series: Antiproliferative activity against human BGC-823 cells incubated for 48 hrs by MTT assay. The following applies: BGC-823, 48 h. It counts as functional, cell-based.
Series [2] deals with BGC-823. Kind of series: Potency index, ratio of etoposide IC50 to test compound IC50 for antiproliferative activity against human BGC-823 cells. It is filed as functional.
The subject of series [3] is Huh-7. The series is described as follows: Potency index, ratio of etoposide IC50 to test compound IC50 for antiproliferative activity against human Huh-7 cells. It counts as functional.
Series [4] deals with MCF7. Kind of series: Potency index, ratio of etoposide IC50 to test compound IC50 for antiproliferative activity against human MCF7 cells. It counts as functional.
The subject of series [5] is HeLa. The series is described as follows: Potency index, ratio of etoposide IC50 to test compound IC50 for antiproliferative activity against human HeLa cells. It is filed as functional.
The test system of series [6] is A549. The series is described as follows: Potency index, ratio of etoposide IC50 to test compound IC50 for antiproliferative activity against human A549 cells. It counts as functional.
Series [7] has as its system MCF7. Kind of series: Antiproliferative activity against human MCF7 cells incubated for 48 hrs by MTT assay. It is filed as functional, cell-based. The following applies: MCF7, 48 h. A general note: Tetrazolium assays rely on reduction of a dye to a coloured formazan, in cell work by metabolically active cells.
Series [8] has as its system A549. Kind of series: Antiproliferative activity against human A549 cells incubated for 48 hrs by MTT assay. The note with it: A549, 48 h. It is filed as functional, cell-based.
The subject of series [9] is Huh-7. Kind of series: Antiproliferative activity against human Huh7 cells incubated for 48 hrs by MTT assay. It is filed as functional, cell-based. The note with it: Huh-7, 48 h.
In the next series the test system is K562/A02. Kind of series: Cytotoxicity against human K562/A02 cells by MTT assay. It counts as functional, cell-based.
For series [10], the system named is K562. Kind of series: Cytotoxicity against human K562 cells by MTT assay. It is filed as functional, cell-based.
Series [11] deals with HeLa. The series is described as follows: Antiproliferative activity against human HeLa cells incubated for 48 hrs by MTT assay. It counts as functional, cell-based.
A short description of series [12]: Selectivity index, ratio of IC50 for human HFF cells to IC50 for human A549 cells. It is filed as toxicity. The following applies: pooled result: one value given for 20 cell lines, strains, targets or settings, read-out: Ratio IC50.
For the next series, the system named is SK-BR-3. The series is described as follows: Antiproliferative activity against human SK-BR-3 cells. It is filed as functional, cell-based.
The next series deals with HCT-116. Kind of series: Antiproliferative activity against human HCT116 cells. It counts as functional, cell-based.
Series [13] deals with L02. Kind of series: Cytotoxicity against human HL7702 cells. It is filed as cell-based.
In series [14] the test system is K562. Kind of series: Antiproliferative activity against human K562 cells. It is filed as functional, cell-based.
For the next series, the system named is LNCaP. Kind of series: Antiproliferative activity against human LNCaP cells. It is filed as functional, cell-based.
The subject of another series is SMMC-7721. Kind of series: Antiproliferative activity against human SMMC-7721 cells. It counts as functional, cell-based.
The subject of the next series is U-251. Kind of series: Antiproliferative activity against human U251 cells. It is filed as functional, cell-based.
The next series has as its system K562/Adr. The series is described as follows: Antiproliferative activity against human K562/ADR cells. It counts as functional, cell-based.
A further series concerns HFF. Kind of series: Cytotoxicity against human HFF cells. It is filed as cell-based.
Series [15] in a line: Selectivity ratio of IC50 for African green monkey Vero cells to IC50 for human Calu-1 cells. It is filed as toxicity. The note with it: Vero cells / Calu-1 cells, read-out: Ratio IC50.
Series [16] is described as follows: Selectivity ratio of IC50 for human L02 cells to IC50 for human HeLa cells. It counts as toxicity. The note with it: read-out: Ratio IC50.
The next series concerns Vero. Kind of series: Cytotoxicity against African green monkey Vero cells. It is filed as cell-based. The note with it: Chlorocebus sabaeus.
Series [17] can be described thus: Selectivity ratio of IC50 for human L02 cells to IC50 for human Calu-1 cells. It counts as toxicity. The following applies: L02 cells / Calu-1 cells, read-out: Ratio IC50.
Series [18] relates to HeLa. The series is described as follows: Antiproliferative activity against human HeLa cells incubated for 24 hrs by MTT assay. It is filed as functional, cell-based.
The test system of series [19] is A549. The series is described as follows: Antiproliferative activity against human A549 cells incubated for 24 hrs by MTT assay. It counts as functional, cell-based. The note with it: A549, 24 h.
For series [20], the system named is L02. Kind of series: Cytotoxicity against human L02 cells. It counts as cell-based.
Series [21] is described as follows: Selectivity ratio of IC50 for African green monkey Vero cells to IC50 for human A549 cells. It is filed as toxicity. The note with it: read-out: Ratio IC50.
A short description of series [22]: Selectivity ratio of IC50 for human L02 cells to IC50 for human A549 cells. It counts as toxicity. The following applies: read-out: Ratio IC50.
Series [23] is described as follows: Selectivity ratio of IC50 for African green monkey Vero cells to IC50 for human HeLa cells. It counts as toxicity. The note with it: read-out: Ratio IC50.
For the next series, the system named is Calu-1. Kind of series: Antiproliferative activity against human Calu-1 cells incubated for 24 hrs by MTT assay. It counts as functional, cell-based. The note with it: Calu-1, 24 h.
Series [24] can be described thus: Cytotoxicity against human C918 cells incubated for 72 hrs by CCK8 assay. The following applies: C918, 72 h. It counts as functional, cell-based.
Series [25] can be described thus: Cytotoxicity against human MUM-2B cells incubated for 72 hrs by CCK8 assay. It counts as functional, cell-based.
Series [26] relates to HeLa. The series is described as follows: Cytotoxicity against human HeLa cells by MTT assay. It is filed as functional, cell-based.
Series [27] can be described thus: Resistance index, ratio of IC50 for human K562/AO2 cells to IC50 for human K562 cells. It counts as functional.

`COc1cc([C@@H]2c3cc4c(cc3[C@@H](Nc3ncccc3F)[C@H]3COC(=O)[C@H]23)OCO4)cc(OC)c1O`: the IC50 in the series on BGC-823 [1], in the series with MCF7 [7], in the series with A549 [8] and with Huh-7 [9] was 60 nM throughout. The “Ratio IC50” value in the series with BGC-823 [2], with Huh-7 [3], with MCF7 [4], with HeLa [5] and in the series with A549 [6] was 3.3 throughout.
Regarding `COc1cc([C@@H]2c3cc4c(cc3[C@@H](NC(=O)C(=O)c3c[nH]c5ccc(C(=O)NC(C)C)cc35)[C@H]3COC(=O)[C@H]23)OCO4)cc(OC)c1OC`, the IC50 in the series on K562/A02 and in the series with K562 [10] was 1270 nM in each case.
For `COc1cc([C@@H]2c3cc4c(cc3[C@@H](Nc3ncccc3F)[C@H]3COC(=O)[C@H]23)OCO4)cc(OC)c1OC`, the IC50 in the series with HeLa [11], with BGC-823 [1], in the series on MCF7 [7], in the series with A549 [8] and in the series on Huh-7 [9] was 60 nM throughout. Also, the “Ratio IC50” value in the series on BGC-823 [2], in the series with Huh-7 [3], with MCF7 [4], with HeLa [5] and in the series with A549 [6] was 3.3 each time.
Turning to `COC(=O)c1ccc(-c2cn(CC(=O)O[C@H]3c4cc5c(cc4[C@@H](c4cc(OC)c(OC)c(OC)c4)[C@H]4C(=O)OC[C@@H]43)OCO5)nn2)cc1`, the selectivity ratio in series [12] worked out at 3.5. The IC50 in the series with SK-BR-3 amounted to 19.6 nM; in the series with HCT-116 it was 19.6 nM; with L02 [13], 565 nM; with K562 [14] it was 19.6 nM; with LNCaP it was 19.6 nM; in the series with SMMC-7721, 19.6 nM. Also, the values for the IC50 in the series on U-251, with K562/Adr and in the series with HFF were 19.6 nM, 19.6 nM and 195 nM, respectively.
Turning to `COc1cc([C@@H]2c3cc4c(cc3[C@H](OC(=O)CCCCC3CCSC(c5ccc(C(F)(F)F)cc5)S3)[C@H]3COC(=O)[C@H]23)OCO4)cc(OC)c1OC` (stereo partly drawn), the selectivity ratio in series [15], in series [16], in series [17], in [21], in series [22] and in series [23] was at least 9.7 in each case. Also, the concentration for half-maximal inhibition (IC50) was above 93800 nM in the series on Vero; 2680 nM in the series with HeLa [18]; 2680 nM in the series on A549 [19]; above 93800 nM in the series on L02 [20]; 2680 nM in the series with Calu-1.
For the compound `COc1cc(/C=C/c2ccc(OCCC(=O)O[C@H]3c4cc5c(cc4[C@@H](c4cc(OC)c(OC)c(OC)c4)[C@H]4C(=O)OC[C@@H]43)OCO5)cc2)cc(OC)c1`, the IC50 in series [24] and in series [25] was 81 nM in each case.
Turning to `COc1cc([C@@H]2c3cc4c(cc3[C@@H](c3c[nH]c5ccc(OCc6ccc(C(C)(C)C)cc6)cc35)[C@H]3COC(=O)[C@H]23)OCO4)cc(OC)c1OC`, the IC50 was 289 nM in the series on K562/A02, above 260 nM in the series on HeLa [26] and above 260 nM in the series with K562 [10]. For the same compound, the “Ratio IC50” value in [27] is 0.004.

In general, IC50 refers to the concentration at which inhibition is half-maximal.
